Results reported in publication PMC6009898 (Journal of Enzyme Inhibition and Medicinal Chemistry, 2017).
Several values for one entry are separate records, joined by “and”; a condition that tells them apart may be missing. Identical values can stand only once.

What was measured:
[1] = molecular target: T1, BuChE (from equine serum) (Equus caballus, UniProt P81908); assay: biochemical; format: biochemical; settings: IC50 eqBuChE, means ± SD of three experiments
T1 construct: butyrylcholinesterase (BuChE, E.C. 3.1.1.8) from equine serum and human serum; purchased Sigma-Aldrich (St. Louis, MO); host or cells: equine serum

[2] = in vitro; set-up: Papp at 16 h: dose or concentration left out as unconfirmed; settings: for Papp at 16 h: PAMPA
Protocol: Commercial drugs were purchased from Sigma (St. Louis, MO) and Alfa Aesar (Haverhill, MA). The porcine brain lipid (PBL) was obtained from Avanti Polar Lipids (Alabaster, AL). The donor microplate (PVDF membrane, pore size […]) and the acceptor microplate were both from Millipore (Darmstadt, Germany). The 96-well UV plate (COSTAR^@) was from Corning Incorporated (Harrodsburg, KY). The acceptor 96-well microplate was filled with 300 μL of PBS/EtOH (7:3), and the filter membrane was impregnated with 4 μL of PBL in dodecane (20 mg/mL). […] The […] was carefully placed on the donor plate to form a sandwich, which was left undisturbed for 16 h at 25 °C. After incubation, the donor plate was carefully removed and the concentration of compound in the acceptor wells was determined using an UV plate reader (Flexstation^@ 3). Every sample was analyzed at five wavelengths, in four wells, in at least three independent runs, and the results are given as the mean ± SD. In each experiment, nine quality control standards of known BBB permeability were included to validate the analysis set.

[3] = molecular target: T2, AChE (from electric eel) (Electrophorus electricus, UniProt O42275); assay: biochemical; settings: means ± SD of three experiments; read-out: IC50 eeAChE
T2 construct: Acetylcholinesterase (E.C. 3.1.1.7) from electric eel and human erythrocytes; purchased Sigma-Aldrich (St. Louis, MO); host or cells: electric eel (natural source)

[4] = molecular target: EeAChE (Electrophorus electricus, UniProt O42275); assay: Kinetic analysis of AChE inhibition (Lineweaver–Burk plots); settings: 5l at 30.0, 15.0 and 7.5 nM
[5] = molecular target: T3, Aβ (1–42) (Homo sapiens, UniProt P05067); assay: Inhibition of Cu^2+-induced Aβ (1–42) aggregation (ThT assay); format: biochemical; settings: read-out: Inhibition of Cu^2+-induced Aβ aggregation
Protocol: The mixture of the peptide (10 μL, 25 μM, final concentration) with or without copper (10 μL, 25 μM, final concentration) and the test compound (10 μL, 50 μM, final concentration) were incubated at 37 °C for 24 h. The 20 μL of the sample was diluted to a final volume of 200 μL with […] glycine–NaOH buffer (pH 8.0) containing ThT (5 μM). The detection method was the same as that of self-induced Aβ aggregation experiment.

[6] = molecular target: brain AChE (Mus musculus, UniProt P21836); settings: mice, 10 μmol/kg i.p., sacrificed 10 min after administration
[7] = test system: PC12 cells; assay: Neuroprotection against Aβ (1–42)-induced toxicity in PC12 cells (MTT assay); format: cell-based; settings: Rattus norvegicus, PC-12, Aβ (1–42) 25 μM, 24 h, Aβ alone 44.2%, read-out: Cell viability (% of control) with Aβ (1–42)
Protocol: PC 12 cells were grown in RPMI-1640 medium containing 10% (v/v) foetal bovine serum, 100 U penicillin/mL and […] streptomycin/mL under 5% CO2 at 37 °C. The culture media were changed every other day. After pretreatment with different concentrations of test compound (0, 6, 12.5, 25, 50 μM) for 2 h, PC 12 cells were incubated with 25 μM of Aβ (1–42) for 24 h. The cell viability was evaluated using MTT assay. Briefly, the cells were treated with 10 μL MTT (5 mg/mL in PBS) for 4 h at 37 °C. Then, 200 μL of DMSO was added to dissolve the dark blue formazan crystals formed in intact cells, and the absorbance at 570 nm was detected by a microplate reader. PC12 cells were cultured without test compound or Aβ (1–42) as control group and the results were expressed by percentage of control.

[8] = molecular target: T3, Aβ (1–42); assay: Inhibition of Aβ (1–42) self-induced aggregation (Thioflavin T assay); settings: read-out: Aβ (1–42) aggregation inhibition (%)
[9] = test system: PC12 cells; assay: Cytotoxicity in PC12 cells (MTT assay); format: cell-based; settings: 3–50 μM, 24 h
Protocol: The toxicity effect of the tested compounds on the rat pheochromocytoma (PC12) cells was examined according to previously reported methods. PC 12 cells was obtained from the Cell Bank of the Chinese Academy of Sciences (Shanghai, China) and routinely grown at 37 °C in a humidified incubator with 5% CO2 in Dulbecco’s modified Eagle’s medium (DMEM) supplemented with 10% bovine calf serum, 100 units per mL penicillin, and 100 units per mL of streptomycin. Cells were sub-cultured in 96-well plates at a seeding density of 5000 cells per well and allowed to adhere and grow. When cells reached the required confluence, they were placed into serum-free medium and treated with compound 5l. Twenty-four hours later the survival of cells was determined by MTT assay. Briefly, after incubation with 20 μL of MTT at 37 °C for 4 h, living cells containing MTT formazan crystals were solubilized in 200 μL DMSO. The absorbance of each well was measured using a microculture plate reader with a test wavelength of 570 nm and a reference wavelength of 630 nm. Results are expressed as the mean ± SD of three independent experiments.

[10] = molecular target: T4, human AChE (Homo sapiens, UniProt P22303); assay: biochemical; settings: means ± SD of three experiments; read-out: IC50 hAChE
T4 construct: Acetylcholinesterase (E.C. 3.1.1.7) from electric eel and human erythrocytes; purchased Sigma-Aldrich (St. Louis, MO); host or cells: human erythrocytes

[11] = PAMPA-BBB literature value; cited from earlier work

T3 sequence (P05067 672-713): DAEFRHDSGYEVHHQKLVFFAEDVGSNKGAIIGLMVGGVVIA
T1 sequence (P81908 whole entry): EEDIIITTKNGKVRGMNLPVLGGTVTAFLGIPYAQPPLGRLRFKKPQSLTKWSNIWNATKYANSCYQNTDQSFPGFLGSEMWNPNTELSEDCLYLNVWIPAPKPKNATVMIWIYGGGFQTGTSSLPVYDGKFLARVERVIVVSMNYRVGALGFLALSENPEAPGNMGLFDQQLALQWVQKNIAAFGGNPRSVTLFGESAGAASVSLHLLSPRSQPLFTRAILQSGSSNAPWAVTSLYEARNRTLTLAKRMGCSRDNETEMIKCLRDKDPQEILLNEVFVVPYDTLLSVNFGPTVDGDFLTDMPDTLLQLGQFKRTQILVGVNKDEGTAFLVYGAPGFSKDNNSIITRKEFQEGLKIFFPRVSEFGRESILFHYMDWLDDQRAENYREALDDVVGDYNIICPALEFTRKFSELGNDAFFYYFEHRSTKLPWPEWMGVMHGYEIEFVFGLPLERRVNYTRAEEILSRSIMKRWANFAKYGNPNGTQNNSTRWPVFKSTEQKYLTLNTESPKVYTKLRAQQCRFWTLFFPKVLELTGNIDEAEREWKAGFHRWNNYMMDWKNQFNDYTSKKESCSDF
T4 sequence (P22303 other isoform, or with tags, fused parts or gaps): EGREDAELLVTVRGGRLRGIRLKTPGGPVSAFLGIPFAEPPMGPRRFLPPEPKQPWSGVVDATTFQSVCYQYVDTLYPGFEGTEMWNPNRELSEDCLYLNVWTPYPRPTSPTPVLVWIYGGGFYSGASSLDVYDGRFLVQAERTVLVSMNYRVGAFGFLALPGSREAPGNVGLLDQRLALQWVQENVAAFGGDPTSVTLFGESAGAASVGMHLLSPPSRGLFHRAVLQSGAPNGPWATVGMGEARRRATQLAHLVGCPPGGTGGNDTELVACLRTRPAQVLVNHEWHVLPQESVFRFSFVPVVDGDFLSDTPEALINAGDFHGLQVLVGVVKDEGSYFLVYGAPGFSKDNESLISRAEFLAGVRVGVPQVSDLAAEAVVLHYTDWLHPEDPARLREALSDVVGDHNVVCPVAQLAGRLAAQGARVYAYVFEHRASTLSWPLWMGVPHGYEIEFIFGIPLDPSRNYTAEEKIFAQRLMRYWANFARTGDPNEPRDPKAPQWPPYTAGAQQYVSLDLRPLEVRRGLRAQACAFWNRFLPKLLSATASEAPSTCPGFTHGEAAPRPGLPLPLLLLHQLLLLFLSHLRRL
EeAChE, sequence (O42275 24-633): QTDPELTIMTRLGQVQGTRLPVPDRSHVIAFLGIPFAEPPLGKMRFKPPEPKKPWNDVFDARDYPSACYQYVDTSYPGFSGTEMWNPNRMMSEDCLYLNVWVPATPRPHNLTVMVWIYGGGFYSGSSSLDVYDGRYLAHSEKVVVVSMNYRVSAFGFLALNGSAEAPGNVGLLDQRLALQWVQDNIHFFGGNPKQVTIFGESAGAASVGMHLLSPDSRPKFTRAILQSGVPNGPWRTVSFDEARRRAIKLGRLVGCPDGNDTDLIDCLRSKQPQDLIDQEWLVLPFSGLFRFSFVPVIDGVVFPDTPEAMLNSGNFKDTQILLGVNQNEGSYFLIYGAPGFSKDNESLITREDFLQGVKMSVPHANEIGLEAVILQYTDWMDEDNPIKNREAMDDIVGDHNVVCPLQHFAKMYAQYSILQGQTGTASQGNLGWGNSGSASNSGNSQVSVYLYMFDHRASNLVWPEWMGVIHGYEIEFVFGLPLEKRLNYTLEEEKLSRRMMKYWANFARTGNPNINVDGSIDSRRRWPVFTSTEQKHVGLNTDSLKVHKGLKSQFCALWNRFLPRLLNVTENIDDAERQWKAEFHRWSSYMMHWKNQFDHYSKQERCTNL
T2 sequence (O42275 24-633): as above
brain AChE, sequence (P21836 32-614): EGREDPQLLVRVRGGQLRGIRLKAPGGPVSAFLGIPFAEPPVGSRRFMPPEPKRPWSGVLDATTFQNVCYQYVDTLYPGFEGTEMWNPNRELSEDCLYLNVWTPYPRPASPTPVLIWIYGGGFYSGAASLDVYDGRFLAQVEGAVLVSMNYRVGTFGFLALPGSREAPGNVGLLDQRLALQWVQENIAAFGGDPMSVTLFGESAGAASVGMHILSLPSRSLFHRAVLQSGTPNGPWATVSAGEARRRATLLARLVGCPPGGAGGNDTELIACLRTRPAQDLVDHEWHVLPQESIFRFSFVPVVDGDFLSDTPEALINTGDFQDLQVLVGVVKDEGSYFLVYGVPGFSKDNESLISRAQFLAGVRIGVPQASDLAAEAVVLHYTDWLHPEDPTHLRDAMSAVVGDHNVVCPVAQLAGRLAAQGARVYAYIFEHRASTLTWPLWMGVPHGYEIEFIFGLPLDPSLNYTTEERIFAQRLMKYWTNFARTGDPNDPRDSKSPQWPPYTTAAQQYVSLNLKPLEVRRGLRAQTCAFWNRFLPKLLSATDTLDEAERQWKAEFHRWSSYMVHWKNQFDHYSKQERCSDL

**Q.** Which results are given for `COc1ccc(/C=C/C(=O)Nc2cc[n+](Cc3ccc(F)cc3)cc2)cc1OC.[Br-]` [Compound 5l, (E)-4-(3-(3,4-dimethoxyphenyl)acrylamido)-1-(4-fluorobenzyl) pyridin-1-ium bromide]?
**A.** IC50 [1]: 2.5 µM and 2.6 µM; Papp at 16 h [2]: 2.89 ± 0.37 ×10⁻⁶ cm/s; BBB permeation prediction class ([2]; PAMPA-BBB): CNS+; IC50 [3]: 0.0121 ± 0.0018 µM; Type of AChE inhibition [4]: mixed-type inhibitor; inhibition at 50 µM [5]: 68.6%; Inhibition (%) of brain AChE activity versus untreated controls [6]: 53.9 ± 2.9%; viability at 6 µM ([7]; 6 μM compound): 47.6 ± 4.2%; viability at 12.5 µM ([7]; 12.5 μM compound): 57.5 ± 1.4%; viability at 25 µM ([7]; 25 μM compound): 63.2 ± 3.5%; viability at 50 µM ([7]; 50 μM compound): 66.6 ± 2.5%; inhibition at 20 µM [8]: 64.7 ± 1.6%; ABTS assay (trolox equiv): N (N means <0.05); Effect on cell viability (toxicity) [9]: did not significantly affect cell viability; IC50 [10]: 0.0086 ± 0.0009 µM

**Q.** With `NCCc1ccc(O)c(O)c1` [Dopamine, reference compound] as the molecule, how does the Papp at 16 h [2] read?
**A.** 0.17 ×10⁻⁶ cm/s

**Q.** What about the “Permeability Pe, Bibl” value [11] of the same molecule?
**A.** 0.2 ×10⁻⁶ cm/s
